# According to patent publication US20040039040A1, “Urea derivative and adhesive-molecule inhibitor containing the same as active ingredient” (priority 2000, published 2004):
# Target: VLA-4-IgG chimera protein (Homo sapiens, UniProt P05556+P13612)
# Experiment: Inhibitory effect against binding between CS-1 peptide and VLA-4-IgG chimera protein
# Settings: binding of VLA-4-IgG chimera protein to immobilized CS-1 peptide-rabbit IgG conjugate; compound preincubated 20 min; 30° C. 3 hours; absorbance at 490 nm
# Procedure: The inhibitory activity of the compound according to the present invention against the adhesion of VLA-4 may be determined by using an adhesion-measuring system in which the adhesion between VLA-4-expressing cells such as Ramos cells or Jurkat cells and fibronectin or fibronectin fragment such as a peptide containing CS-1 sequence (Gly Pro Glu Ile Leu Asp Val Pro Ser Thr) (hereinafter referred to as “CS-1 peptide”), immobilized on an immunoplate is measured. Alternatively, a binding-measuring system in which the adhesion between VLA-4 protein and fibronectin or fibronectin fragment such as CS-1 peptide, immobilized on an immunoplate may be used. In the present invention, it is preferred to evaluate the inhibitory activity of a compound using a binding-measuring system in which adhesion between a chimera protein of VLA-4-immunoglobulin (VLA-4-IgG chimera protein) and CS-1 peptide (Japanese Patent Application No. H9-234544), but the method is not restricted thereto. The “VLA-4-IgG chimera protein” herein means the heterodimer complex of the chimera protein between α4 of VLA-4 and immunoglobulin (hereinafter referred to as “VLAα4-IgG chimera protein”) and a chimera protein between β1 of VLA-4 and immunoglobulin (hereinafter referred to as “VLAβ1-IgG chimera protein”). As the immunoglobulin, although heavy chain or light chain of IgG, IgM or the like may be used, IgG1 heavy chain is used in the present invention. When testing the inhibitory effect of a compound, it is preferred to mix VLA-4-IgG chimera protein and the test compound previously.
# In accordance with the teaching of a report (Humphrise, M. J. et al. J.Bio.Chem., 262,6886-6892(1987)), a conjugate between a peptide (Gys Leu His Gly Pro Glu Glu Ile Leu Asp Val Pro Ser Thr) containing CS-1 sequence and rabbit IgG (Sigma) was prepared. This was diluted with phosphate buffer (hereinafter referred to as “PBS(−)” for short), and the obtained solution was placed in the wells of a 96-well immunoplate (NUNC) in an amount of 100 μl/well, followed by leaving to stand the immunoplate at 4° C. for 16 hours to immobilize the conjugate.
# The wells were then washed twice with PBS(−), and 1% BSA solution in PBS, which BSA was heated at 80° C. for 10 minutes, was placed in each well in an amount of 300 μl/well. The immunoplate was left to stand at 4° C. for 3 hours, and then the solution in each well was removed by suction.
# Each compound and VLA-4-IgG chimera protein (100 μl) were preliminarily reacted at room temperature for 20 minutes, and then the resulting mixture was allowed to react with the CS-1 peptide in each well at 30° C. for 3 hours. Thereafter, non-bound VLA-4-IgG chimera protein was removed by suction, and each well was washed twice with 0.1% BSA-containing TBS buffer (150 mM NaCl, 25 mM Tris-HCl, 1 mM MnCl2, PH7.4). To the bound VLA-4-IgG chimera protein, biotin-labelled anti-human IgG antibody (Vector) as a primary antibody was added, and then avidin-labelled horse radish peroxidase (Sigma) as a secondary antibody was added, thereby allowing the reactions. Then o-phenylenediamine as a substrate was added to color the reaction solution, and the absorbance at 490 nm was measured. From this absorbance, the binding inhibitory activity of each compound was determined.
# Chain of VLA-4-IgG chimera protein (P13612 with tags, fused parts or gaps limits assumed): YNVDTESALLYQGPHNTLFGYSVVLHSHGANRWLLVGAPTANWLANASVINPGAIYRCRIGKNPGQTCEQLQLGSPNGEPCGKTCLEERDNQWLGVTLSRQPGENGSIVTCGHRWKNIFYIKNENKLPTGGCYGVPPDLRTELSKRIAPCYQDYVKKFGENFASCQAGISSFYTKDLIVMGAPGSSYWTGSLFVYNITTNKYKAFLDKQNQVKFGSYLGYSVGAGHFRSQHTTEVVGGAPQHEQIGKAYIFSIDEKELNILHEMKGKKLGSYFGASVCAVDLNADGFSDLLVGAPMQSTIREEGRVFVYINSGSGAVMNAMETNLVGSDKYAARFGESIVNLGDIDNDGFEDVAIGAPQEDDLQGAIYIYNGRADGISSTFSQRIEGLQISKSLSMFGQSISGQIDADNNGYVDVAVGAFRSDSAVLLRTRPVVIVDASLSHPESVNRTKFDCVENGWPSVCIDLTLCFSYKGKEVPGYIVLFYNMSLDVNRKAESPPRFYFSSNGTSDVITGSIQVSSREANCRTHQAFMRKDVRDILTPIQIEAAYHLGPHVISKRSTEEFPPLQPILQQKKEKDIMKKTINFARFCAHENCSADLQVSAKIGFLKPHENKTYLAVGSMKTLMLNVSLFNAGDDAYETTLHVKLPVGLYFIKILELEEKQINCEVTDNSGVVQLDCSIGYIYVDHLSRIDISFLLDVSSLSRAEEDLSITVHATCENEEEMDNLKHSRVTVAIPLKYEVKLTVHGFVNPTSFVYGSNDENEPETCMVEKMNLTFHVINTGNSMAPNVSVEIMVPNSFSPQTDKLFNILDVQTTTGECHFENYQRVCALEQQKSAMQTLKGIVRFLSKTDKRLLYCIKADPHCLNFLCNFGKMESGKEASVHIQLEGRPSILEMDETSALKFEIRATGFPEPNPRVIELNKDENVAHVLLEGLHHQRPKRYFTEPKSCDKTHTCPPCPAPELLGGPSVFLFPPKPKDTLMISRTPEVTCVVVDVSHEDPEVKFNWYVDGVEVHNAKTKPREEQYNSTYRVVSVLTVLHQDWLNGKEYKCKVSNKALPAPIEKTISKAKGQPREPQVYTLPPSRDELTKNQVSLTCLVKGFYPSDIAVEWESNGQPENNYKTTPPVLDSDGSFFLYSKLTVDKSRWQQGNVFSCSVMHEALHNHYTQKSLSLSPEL
# Chain of VLA-4-IgG chimera protein (P05556 with tags, fused parts or gaps limits assumed): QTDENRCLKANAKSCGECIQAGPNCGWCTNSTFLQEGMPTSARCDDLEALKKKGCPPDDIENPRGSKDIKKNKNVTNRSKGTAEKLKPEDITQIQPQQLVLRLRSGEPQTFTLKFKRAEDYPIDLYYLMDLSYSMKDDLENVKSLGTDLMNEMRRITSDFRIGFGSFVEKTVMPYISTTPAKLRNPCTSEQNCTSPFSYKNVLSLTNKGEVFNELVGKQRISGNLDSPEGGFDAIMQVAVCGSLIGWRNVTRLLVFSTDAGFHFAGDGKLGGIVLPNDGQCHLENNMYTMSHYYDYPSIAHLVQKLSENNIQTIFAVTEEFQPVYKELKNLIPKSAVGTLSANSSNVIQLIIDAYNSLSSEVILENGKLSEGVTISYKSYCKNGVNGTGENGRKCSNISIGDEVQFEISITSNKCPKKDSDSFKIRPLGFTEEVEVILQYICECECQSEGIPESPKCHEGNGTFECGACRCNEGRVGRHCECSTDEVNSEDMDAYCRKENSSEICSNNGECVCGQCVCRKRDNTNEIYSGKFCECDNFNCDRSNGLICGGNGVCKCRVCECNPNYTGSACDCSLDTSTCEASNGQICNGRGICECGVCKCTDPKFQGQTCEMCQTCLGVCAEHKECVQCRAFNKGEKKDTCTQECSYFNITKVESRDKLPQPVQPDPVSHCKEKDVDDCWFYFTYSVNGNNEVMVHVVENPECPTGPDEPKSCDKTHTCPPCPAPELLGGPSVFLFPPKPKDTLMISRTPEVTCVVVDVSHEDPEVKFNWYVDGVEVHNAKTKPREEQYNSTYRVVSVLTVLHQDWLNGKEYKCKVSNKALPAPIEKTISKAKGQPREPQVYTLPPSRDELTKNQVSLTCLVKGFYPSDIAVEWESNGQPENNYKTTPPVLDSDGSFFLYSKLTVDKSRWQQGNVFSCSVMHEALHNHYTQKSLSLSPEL
row,SMILES,IC50 [nM]
1,"CS(=O)(=O)N1CC2(CCN(C(=O)N[C@@H](Cn3ccc(NC(=O)c4c(Cl)cccc4Cl)nc3=O)C(=O)O)CC2)c2ccccc21 [Compound 28, 3-(4-((2,6-dichlorophenyl)carbonylamino)-2-oxohydropyrimidinyl)-2-((1-(methylsulfonyl)spiro[indoline-3,4′-piperidin]-10-yl)carbonylamino)propanoic Acid]",3.8
2,"O=C(Nc1ccn(C[C@H](NC(=O)N2CCC(n3c(=O)[nH]c4ccccc43)CC2)C(=O)O)c(=O)n1)c1c(Cl)cccc1Cl [Compound 32, 3-(4-((2,6-dichlorophenyl)carbonylamino)-2-oxohydropyrimidinyl)-2-((4-(2-oxo-3-azaindolinyl)piperidyl)carbonylamino)propanoic Acid]",0.97
3,O=C(Nc1ccn(C[C@H](NC(=O)N2CCC3(CC2)C(=O)NCN3c2ccccc2)C(=O)O)c(=O)n1)c1c(Cl)cccc1Cl [Compound 35],2.4
4,CC(=O)NC1(c2ccccc2)CCN(C(=O)N[C@@H](Cn2ccc(NC(=O)c3c(Cl)cccc3Cl)nc2=O)C(=O)O)CC1 [Compound 37],3.5
5,"C[C@@H]1CCC[C@H](C)N1C(=O)N[C@@H](Cn1ccc(NC(=O)c2c(Cl)cccc2Cl)nc1=O)C(=O)O [Compound 50, 3-(4-((2,6-dichlorophenyl)carbonylamino)-2-oxohydropyrimidinyl)-2-((2,6-dimethylpiperidyl)carbonylamino)propanoic Acid]",4.5

# Tested on: not given
# Experiment: not given
# Settings: not given
row,SMILES,melting point [°C]
1,"O=C(N[C@@H](Cn1ccc(NC(=O)c2c(Cl)cccc2Cl)nc1=O)C(=O)O)NC1(C(=O)Nc2ccccc2)CCCCC1 [Compound 8, 3-(4-((2,6-dichlorophenyl)carbonylamino)-2-oxohydropyrimidinyl)-2-((((N-phenylcarbamoyl)cyclohexyl)amino)carbonylamino)propanoic Acid]",193 to 195
2,O=C(Nc1ccc(C[C@@H](C(=O)O)N2C(=O)NC3(CCCCC3)C2=O)cc1)c1c(Cl)cccc1Cl [Compound 44],250
